Data set [1] relates to NSCLC. Conditions: second line after cisplatin-based first-line regimens, ECOG 0, 1 or 2, versus best supportive care; cited from earlier work.
A further data set has as its system advanced NSCLC. The data set is described as follows: open-label, predictive marker identification Phase II study of Tarceva monotherapy. Format: in vivo, human. Here is the method:
The selection of this dose was based on pharmacokinetic parameters, as well as the safety and tolerability profile of this dose observed in Phase I, II and III trials in heavily pre-treated patients with advanced cancer. Drug levels seen in the plasma of patients with cancer receiving the 150 mg/day dose were consistently above the average plasma concentration of 500 ng/ml targeted for clinical efficacy.
This was an open-label, predictive marker identification Phase II study. The study was conducted in approximately 26 sites in about 12 countries. 264 patients with advanced NSCLC following failure of at least one prior chemotherapy regimen were enrolled over a 12 month period. […] Dose reductions were permitted based on tolerability to drug therapy. Clinical and laboratory parameters were assessed to evaluate disease control and toxicity. Treatment continued until disease progression, unacceptable toxicity or death. The study design is depicted in FIG. 1.
The RECIST (Uni-dimensional Tumour Measurement) criteria were used to evaluate response. These criteria can be found under the following link: http://www.eortc.be/recist/
Note that: To be assigned a status of CR or PR, changes in tumour measurements must be confirmed by repeated assessments at least 4 weeks apart at any time during the treatment period.
In the case of SD, follow-up measurements must have met the SD criteria at least once after study entry at a minimum interval of 6 weeks.
In the case of maintained SD, follow-up measurements must have met the SD criteria at least once after study entry with maintenance duration of at least 12 weeks.
A regular status check every 3 months was performed either by a patient's visit to the clinic or by telephone. All deaths were recorded. At the end of the study a definitive confirmation of survival was required for each patient.

The conditions of data set [2]: patients with cancer, 150 mg/day; cited from earlier work.
Data set [3] concerns NSCLC. The following applies: single agent, after failure of standard therapy for advanced disease, versus placebo; cited from earlier work.
For data set [4] the following is noted: doses that provide the targeted effective concentration; cited from earlier work.
Data set [5] relates to NSCLC. The following applies: second line therapy of NSCLC; cited from earlier work.
The mark [6] stands for this setting: 75 patients with qRT-PCR results.
Setting [7] is: 102 patients with microarray data.
[8] abbreviates: all 264 enrolled patients, 150 mg/day oral.
[9] abbreviates: of the 102 patients with microarray data.

The structures appear in SMILES notation.

Take `CC(=O)O[C@@]12CO[C@@H]1C[C@H](O)[C@@]1(C)C(=O)[C@H](O)C3=C(C)[C@@H](OC(=O)[C@H](O)[C@@H](NC(=O)OC(C)(C)C)c4ccccc4)C[C@@](O)([C@@H](OC(=O)c4ccccc4)[C@H]21)C3(C)C` [docetaxel]: the survival entry with NSCLC [1] is “improved survival”.

For `C#Cc1cccc(Nc2ncnc3cc(OCCOC)c(OCCOC)cc23)c1` [Tarceva, erlotinib], in the data set with advanced NSCLC (setting [6]), the PD is on record as 52% and the “partial response (PR)” value was 5%. Further, in the data set on advanced NSCLC (setting [7]), the “Best Response SD, n (%)” value was 31 (30.4%) and the “Clinical Benefit YES, n (%)” value is on record as 21 (20.6%). Also, in the data set on advanced NSCLC (setting [8]), the “clinical benefit (objective response or stable disease for 12 weeks or more)” value is listed as 31.4%, the median overall survival is 7.6 (CI 7-9) months and the median progression-free survival was 11.3 (CI 8-12) weeks. In addition, in the data set with advanced NSCLC (all 264 enrolled patients, 150 mg/day oral, RECIST), the “patients achieving an objective response” value is on record as 13.6%. In the data set on advanced NSCLC (setting [9]), the “number of partial responders (PR)” value is 6, the “number of patients with PD” value was 49, the “number of patients with SD” value is listed as 31 and the “patients achieving a CR” value is listed as “no patients achieving a CR”. Moreover, the “drug levels in plasma” value in data set [2] was more than 500 ng/mL. For the same molecule, the “survival of NSCLC patients” value in the data set on NSCLC [3] was “significantly prolongs and improves the survival”. For the same molecule, the safety and tolerability entry in data set [4] was “safe and generally well tolerated”.

Take `Nc1nc2[nH]cc(CCc3ccc(C(=O)N[C@@H](CCC(=O)O)C(=O)O)cc3)c2c(=O)[nH]1` [pemetrexed]: in the data set with NSCLC [5], the “efficacy compared with docetaxel” value was “clinically equivalent efficacy” and the “side effects compared with docetaxel” value is “significantly fewer side effects”.
